# Legend:
# in vitro = details: dog
# [1] = test system: influenza virus A/Taiwan/1/86 (H1N1); assay: organism not typed; format: cell-based; details: MDCK, 72 h, MDCK cells infected with influenza A/Taiwan/1/86 (H1N1); three days post-virus exposure; CPE by ATP levels
structure (smiles),measurement,setting,value
N#Cc1cc(F)c(N[C@H]2CCC[C@@H](NC(=O)N3CCCC3)C2)nc1-c1c[nH]c2ncncc12 (stereo in doubt) [Compound 93],CC50 at 3 days,in vitro,> 25 µM
same,IC50,[1],0.006 µM
COC(=O)CC(Nc1nc(-c2c[nH]c3ncncc23)ncc1F)C(C)(C)C (centres unmarked) [Compound 69],CC50 at 3 days,in vitro,> 25 µM
same,IC50,[1],0.83 µM
CC(C)Nc1nc(-c2c[nH]c3ncncc23)ncc1F [Compound 61],CC50 at 3 days,in vitro,> 25 µM
same,IC50,[1],0.63 µM
COC(=O)[C@H]1C2CCC(CC2)[C@@H]1Nc1nc(-c2c[nH]c3ncncc23)ncc1F [Compound 24],CC50 at 3 days,in vitro,> 25 µM
same,IC50,[1],0.325 µM
CC(C)(C)C(CC(=O)O)Nc1nc(-c2c[nH]c3ncncc23)c(C#N)cc1F (centres unmarked) [Compound 21],CC50 at 3 days,in vitro,13.4 µM
same,IC50,[1],0.106 µM
Nc1ncnc2[nH]cc(-c3ncc(F)c(N[C@@H]4CCC[C@H](C(=O)N5CCCC5)C4)n3)c12 [Compound 79],CC50 at 3 days,in vitro,> 25 µM
same,IC50,[1],0.15 µM
O=C(N[C@H]1CCC[C@@H](Nc2nc(-c3c[nH]c4ncncc34)ncc2F)C1)N1CCCC1 (racemic) [Compound 7],CC50 at 3 days,in vitro,> 25 µM
same,IC50,[1],0.005 µM
CC1(C(CC(=O)O)Nc2nc(-c3c[nH]c4ncncc34)ncc2F)CCCC1 (centres unmarked) [Compound 53],CC50 at 3 days,in vitro,> 25 µM
same,IC50,[1],0.65 µM
Cn1cnc(C(=O)N[C@H]2CCC[C@@H](Nc3nc(-c4c[nH]c5ncncc45)c(F)cc3F)C2)c1 [Compound 16],CC50 at 3 days,in vitro,> 25 µM
same,IC50,[1],0.036 µM
O=C(O)[C@H]1C2CCC(CC2)[C@@H]1Nc1nc(-c2c[nH]c3ncncc23)ncc1F (mixture of isomers) [Compound 54],CC50 at 3 days,in vitro,> 25 µM
same,IC50,[1],0.46 µM
O=C(N[C@H]1CCC[C@@H](Nc2nc(-c3c[nH]c4ncncc34)ncc2F)C1)C1CC1 (racemic) [Compound 39],CC50 at 3 days,in vitro,> 25 µM
same,IC50,[1],0.114 µM
Cn1cnc(C(=O)N[C@H]2CCC[C@@H](Nc3nc(-c4c[nH]c5ncncc45)ncc3F)C2)c1 [Compound 14],CC50 at 3 days,in vitro,> 25 µM
same,IC50,[1],0.047 µM
Cc1[nH]c2ncncc2c1-c1ncc(F)c(N[C@@H]2CCC[C@H](NC(=O)N3CCCC3)C2)n1 [Compound 83],CC50 at 3 days,in vitro,> 25 µM
same,IC50,[1],0.71 µM
CC(C)C(=O)N[C@H]1CCC[C@@H](Nc2nc(-c3c[nH]c4ncncc34)ncc2F)C1 (racemic) [Compound 73],CC50 at 3 days,in vitro,> 25 µM
same,IC50,[1],0.93 µM
CC[C@@]1(C(=O)O)CCCC[C@H]1Nc1nc(-c2c[nH]c3ncncc23)ncc1F [Compound 72],CC50 at 3 days,in vitro,10.3 µM
same,IC50,[1],0.86 µM
CC(C)(C)C(=O)N[C@H]1CCC[C@@H](Nc2nc(-c3c[nH]c4ncncc34)ncc2F)C1 (racemic) [Compound 64],CC50 at 3 days,in vitro,> 25 µM
same,IC50,[1],0.76 µM
Cc1ncnc2[nH]cc(-c3ncc(F)c(N[C@@H]4CCC[C@H](NC(=O)N5CCCC5)C4)n3)c12 [Compound 87],CC50 at 3 days,in vitro,> 25 µM
same,IC50,[1],0.47 µM
COCC(=O)N[C@H]1CCC[C@@H](Nc2nc(-c3c[nH]c4ncncc34)ncc2F)C1 (racemic) [Compound 66],CC50 at 3 days,in vitro,> 25 µM
same,IC50,[1],0.82 µM
O=C(N[C@H]1CCC[C@@H](Nc2nc(-c3c[nH]c4ncncc34)ncc2F)C1)C1CCC1 (racemic) [Compound 37],CC50 at 3 days,in vitro,> 25 µM
same,IC50,[1],0.205 µM
Cc1nc(C(=O)N[C@H]2CCC[C@@H](Nc3nc(-c4c[nH]c5ncncc45)ncc3F)C2)c(C)o1 (racemic) [Compound 36],CC50 at 3 days,in vitro,> 25 µM
same,IC50,[1],0.04 µM
Cc1cc(C(=O)N[C@H]2CCC[C@@H](Nc3nc(-c4c[nH]c5ncncc45)ncc3F)C2)on1 (racemic) [Compound 32],CC50 at 3 days,in vitro,> 25 µM
same,IC50,[1],0.035 µM
CC(C)NC(=O)N[C@H]1CCC[C@@H](Nc2nc(-c3c[nH]c4ncncc34)ncc2F)C1 (racemic) [Compound 41],CC50 at 3 days,in vitro,> 25 µM
same,IC50,[1],0.319 µM
O=C(N[C@H]1CCC[C@@H](Nc2nc(-c3c[nH]c4ncncc34)ncc2F)C1)c1ccno1 (racemic) [Compound 47],CC50 at 3 days,in vitro,> 25 µM
same,IC50,[1],0.011 µM
O=C(N[C@H]1CCC[C@@H](Nc2nc(-c3c[nH]c4ncncc34)ncc2F)C1)C1CCCCO1 (mixture of isomers) [Compound 38],CC50 at 3 days,in vitro,> 25 µM
same,IC50,[1],0.38 µM
O=C(O)[C@H]1C2CCC(CC2)[C@@H]1Nc1nc(-c2c[nH]c3ncncc23)c(C(F)(F)F)cc1F [Compound 44],CC50 at 3 days,in vitro,9.4 µM
same,IC50,[1],0.003 µM
"N#Cc1cc(F)c(N[C@@H]2CCC[C@H](NC(=O)N3CCCC3)C2)nc1-c1c[nH]c2ncncc12 (stereo in doubt) [Compound 9, (+/−)-N-((cis)-3-((5-cyano-3-fluoro-6-(7H-pyrrolo[2,3-d]pyrimidin-5-yl)pyridin-2-yl)amino)cyclohexyl)pyrrolidine-1-carboxamide]",CC50 at 3 days,in vitro,8.74 µM
same,IC50,[1],0.009 µM
O=C(N[C@H]1CCC[C@@H](Nc2nc(-c3c[nH]c4ncncc34)ncc2F)C1)c1ccn2nccc2n1 (racemic) [Compound 29],CC50 at 3 days,in vitro,> 25 µM
same,IC50,[1],0.01 µM
Cc1ncc2c(-c3ncc(F)c(N[C@@H]4CCC[C@H](NC(=O)N5CCCC5)C4)n3)c[nH]c2n1 [Compound 92],CC50 at 3 days,in vitro,> 25 µM
same,IC50,[1],0.18 µM
O=C(N[C@H]1CCC[C@@H](Nc2nc(-c3c[nH]c4ncncc34)c(F)cc2F)C1)N1CCCC1 [Compound 23],CC50 at 3 days,in vitro,> 25 µM
same,IC50,[1],0.033 µM
Fc1cnc(-c2c[nH]c3ncncc23)nc1NC1[C@H]2CC3C[C@H](C2)C[C@H]1C3 (some centres unmarked) [Compound 57],CC50 at 3 days,in vitro,5.2 µM
same,IC50,[1],0.66 µM
Fc1cnc(-c2c[nH]c3ncncc23)nc1NC1CCCCC1 [Compound 65],CC50 at 3 days,in vitro,11.6 µM
same,IC50,[1],0.81 µM
O=C(N[C@H]1CCC[C@@H](Nc2nc(-c3c[nH]c4ncncc34)ncc2F)C1)c1ccccn1 (racemic) [Compound 35],CC50 at 3 days,in vitro,> 25 µM
same,IC50,[1],0.002 µM
O=C(N[C@H]1CCC[C@@H](Nc2nc(-c3c[nH]c4ncncc34)ncc2F)C1)c1cccnc1 (racemic) [Compound 49],CC50 at 3 days,in vitro,> 25 µM
same,IC50,[1],0.046 µM
O=C(Nc1ccccc1)N[C@H]1CCC[C@@H](Nc2nc(-c3c[nH]c4ncncc34)ncc2F)C1 (racemic) [Compound 31],CC50 at 3 days,in vitro,> 25 µM
same,IC50,[1],0.021 µM
N#Cc1cc(F)c(N[C@@H]2CCC[C@H](NC(=O)c3ccccn3)C2)nc1-c1c[nH]c2ncncc12 [Compound 98],CC50 at 3 days,in vitro,> 25 µM
same,IC50,[1],0.002 µM
Cc1cc(C(=O)N[C@H]2CCC[C@@H](Nc3nc(-c4c[nH]c5ncncc45)ncc3F)C2)nn1C (racemic) [Compound 30],CC50 at 3 days,in vitro,> 25 µM
same,IC50,[1],0.021 µM
CC(C)(C)C(CC(=O)O)Nc1nc(-c2c[nH]c3ncncc23)c(C(F)(F)F)cc1F (centres unmarked) [Compound 18],CC50 at 3 days,in vitro,2.48 µM
same,IC50,[1],0.044 µM
COC(=O)N[C@H]1CCC[C@@H](Nc2nc(-c3c[nH]c4ncncc34)ncc2F)C1 (racemic) [Compound 56],CC50 at 3 days,in vitro,> 25 µM
same,IC50,[1],0.6 µM
O=C(N[C@H]1CCC[C@@H](Nc2nc(-c3c[nH]c4ncncc34)cnc2F)C1)N1CCCC1 [Compound 46],CC50 at 3 days,in vitro,> 25 µM
same,IC50,[1],0.005 µM
Cc1noc(C)c1C(=O)N[C@H]1CCC[C@@H](Nc2nc(-c3c[nH]c4ncncc34)ncc2F)C1 (racemic) [Compound 40],CC50 at 3 days,in vitro,> 25 µM
same,IC50,[1],0.19 µM
O=C(O)c1ccccc1C(=O)N[C@H]1CCC[C@@H](Nc2nc(-c3c[nH]c4ncncc34)ncc2F)C1 (racemic) [Compound 63],CC50 at 3 days,in vitro,> 25 µM
same,IC50,[1],0.72 µM
CCC(=O)N[C@H]1CCC[C@@H](Nc2nc(-c3c[nH]c4ncncc34)ncc2F)C1 (racemic) [Compound 62],CC50 at 3 days,in vitro,> 25 µM
same,IC50,[1],0.7 µM
O[C@H]1CCCC[C@@H]1Nc1nc(-c2c[nH]c3ncncc23)ncc1F (racemic) [Compound 58],CC50 at 3 days,in vitro,> 100 µM
same,IC50,[1],0.63 µM
CC(C)(C)[C@@H](CO)Nc1nc(-c2c[nH]c3ncncc23)ncc1F (racemic) [Compound 55],CC50 at 3 days,in vitro,> 25 µM
same,IC50,[1],0.55 µM
Cn1cnc(C(=O)N[C@@H]2CCC[C@@H](Nc3nc(-c4c[nH]c5ncncc45)c(C#N)cc3F)C2)c1 [Compound 12],CC50 at 3 days,in vitro,> 25 µM
same,IC50,[1],0.03 µM
Cn1cccc1C(=O)N[C@H]1CCC[C@@H](Nc2nc(-c3c[nH]c4ncncc34)ncc2F)C1 (racemic) [Compound 45],CC50 at 3 days,in vitro,> 25 µM
same,IC50,[1],0.004 µM
O=C(N[C@H]1CCC[C@@H](Nc2nc(-c3c[nH]c4ncncc34)ncc2F)C1)c1ccncc1 (racemic) [Compound 33],CC50 at 3 days,in vitro,> 100 µM
same,IC50,[1],0.042 µM
O=C(N[C@H]1CCC[C@@H](Nc2nc(C3CNc4ncncc43)ncc2F)C1)OCc1ccccc1 (some centres unmarked) [Compound 28],CC50 at 3 days,in vitro,> 25 µM
same,IC50,[1],0.351 µM
N#Cc1cc(F)c(N[C@H]2C3CCC(CC3)[C@@H]2C(=O)O)nc1-c1c[nH]c2ncncc12 [Compound 101],CC50 at 3 days,in vitro,10.5 µM
same,IC50,[1],0.036 µM
